Patent US20250312352A1, “GLP-1R MODULATING COMPOUNDS” (Gilead Sciences, Inc., priority 2021, published 2025)

Target: T1, GLP-1R (Homo sapiens, UniProt P43220)
T1 construct: host or cells: CHO cells
Test: GLP-1R activation cAMP assay (Assay 1 or Assay 2)
Assay type: cell-based
Conditions: cAMP increase in CHO cells stably expressing GLP-1R; compounds run on one of the two cAMP assays
Outline: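 EC50 values come from a sigmoidal fit of HTRF-detected cAMP rise versus log agonist concentration. GLP-1R-expressing CHO cells, equilibrated 1 h at 37 °C in HBSS with HEPES and BSA, received a 10-point compound dose series for 30 min before detection.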

T1 sequence (P43220 24-463): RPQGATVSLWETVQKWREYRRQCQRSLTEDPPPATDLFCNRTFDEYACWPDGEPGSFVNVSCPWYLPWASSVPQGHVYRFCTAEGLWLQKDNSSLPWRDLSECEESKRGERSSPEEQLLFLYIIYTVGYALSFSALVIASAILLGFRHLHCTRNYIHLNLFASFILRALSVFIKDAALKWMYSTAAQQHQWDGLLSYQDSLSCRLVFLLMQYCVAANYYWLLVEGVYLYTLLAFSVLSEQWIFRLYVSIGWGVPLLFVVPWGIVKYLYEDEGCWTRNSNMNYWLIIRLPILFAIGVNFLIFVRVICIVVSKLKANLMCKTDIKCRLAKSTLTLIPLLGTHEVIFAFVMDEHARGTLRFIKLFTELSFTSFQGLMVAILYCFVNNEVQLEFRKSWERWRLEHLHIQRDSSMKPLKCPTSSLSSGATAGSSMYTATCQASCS

Row | EC50 | Structure (SMILES)
1 | 0.042 nM | O=C(O)c1ccc2nc(Cc3cc(F)c(-c4cccc(OCc5ncc(C#Cc6cn[nH]c6)cc5F)n4)cc3F)n(C[C@@H]3CCO3)c2c1 [Example 286, (S)-2-(4-(6-((5-((1H-pyrazol-4-yl)ethynyl)-3-fluoropyridin-2-yl)methoxy)pyridin-2-yl)-2,5-difluorobenzyl)-1-(oxetan-2-ylmethyl)-1H-benzo[d]imidazole-6-carboxylic acid]
2 | 0.17 nM | Cn1cc(C#Cc2ccc(COc3cccc(-c4cc(F)c(Cc5nc6ccc(C(=O)O)cc6n5C[C@@H]5CCO5)cc4F)n3)c(F)c2)cn1 [Example 132, (S)-2-(2,5-difluoro-4-(6-((2-fluoro-4-((1-methyl-1H-pyrazol-4-yl)ethynyl)benzyl)oxy)pyridin-2-yl)benzyl)-1-(oxetan-2-ylmethyl)-1H-benzo[d]imidazole-6-carboxylic acid]
3 | 0.24 nM | O=C(O)c1ccc2nc(Cc3cc(F)c(-c4cccc(OCc5ccc(C#Cc6cncs6)cc5F)n4)cc3F)n(C[C@@H]3CCO3)c2c1 [Example 137, (S)-2-(2,5-difluoro-4-(6-((2-fluoro-4-(thiazol-5-ylethynyl)benzyl)oxy)pyridin-2-yl)benzyl)-1-(oxetan-2-ylmethyl)-1H-benzo[d]imidazole-6-carboxylic acid]
4 | 3.15 nM | NC(=O)c1cnc(COc2cccc(-c3cc(F)c(Cc4nc5ccc(C(=O)O)cc5n4C[C@@H]4CCO4)cc3F)n2)s1 [Example 3, (S)-2-(4-(6-((5-carbamoylthiazol-2-yl)methoxy)pyridin-2-yl)-2,5-difluorobenzyl)-1-(oxetan-2-ylmethyl)-1H-benzo[d]imidazole-6-carboxylic acid]
5 | 0.303 nM | CC1(C#Cc2cnc(COc3cccc(-c4cc(F)c(Cc5nc6c(F)cc(C(=O)O)cc6n5C[C@@H]5CCO5)cc4F)n3)c(Cl)c2)CC1 [Example 379, (S)-2-(4-(6-((3-chloro-5-((1-methylcyclopropyl)ethynyl)pyridin-2-yl)methoxy)pyridin-2-yl)-2,5-difluorobenzyl)-4-fluoro-1-(oxetan-2-ylmethyl)-1H-benzo[d]imidazole-6-carboxylic acid]
6 | 730 nM | COCCn1c(Cc2cc(F)c(-c3cccc(OCc4cnn(-c5ccccc5)c4)n3)cc2F)nc2ccc(C(=O)O)cc21 [Example 121, 2-(2,5-difluoro-4-(6-((1-phenyl-1H-pyrazol-4-yl)methoxy)pyridin-2-yl)benzyl)-1-(2-methoxyethyl)-1H-benzo[d]imidazole-6-carboxylic acid]
7 | 1.13 nM | NC(=O)c1ccc(COc2cccc(-c3cc(F)c(Cc4nc5ccc(C(=O)O)cc5n4C[C@@H]4CCO4)cc3F)n2)c(F)n1 [Example 240, 2-[[4-[6-[(6-carbamoyl-2-fluoro-3-pyridyl)methoxy]-2-pyridyl]-2,5-difluoro-phenyl]methyl]-3-[[(2S)-oxetan-2-yl]methyl]benzimidazole-5-carboxylic acid]
8 | 0.087 nM | COc1nnc(COc2cccc(-c3cc(Cl)c(Cc4nc5ccc(C(=O)O)cc5n4[C@@H]4COCC4(C)C)cc3F)n2)s1 [Example 434, (S)-2-(2-chloro-5-fluoro-4-(6-((5-methoxy-1,3,4-thiadiazol-2-yl)methoxy)pyridin-2-yl)benzyl)-1-(4,4-dimethyltetrahydrofuran-3-yl)-1H-benzo[d]imidazole-6-carboxylic acid]
9 | 13.7 nM | O=C(O)c1ccc2nc(Cc3cc(F)c(-c4cccc(OCc5cn6cccnc6n5)n4)cc3F)n(C[C@@H]3CCO3)c2c1 [Example 29, (S)-2-(2,5-difluoro-4-(6-(imidazo[1,2-a]pyrimidin-2-ylmethoxy)pyridin-2-yl)benzyl)-1-(oxetan-2-ylmethyl)-1H-benzo[d]imidazole-6-carboxylic acid]
10 | 3.72 nM | NC(=O)c1ccc(COc2cccc(-c3cc(F)c(Cc4nc5ccc(C(=O)O)cc5n4C[C@@H]4CCO4)cc3F)n2)s1 [Example 127, (S)-2-(4-(6-((5-carbamoylthiophen-2-yl)methoxy)pyridin-2-yl)-2,5-difluorobenzyl)-1-(oxetan-2-ylmethyl)-1H-benzo[d]imidazole-6-carboxylic acid]
11 | 0.372 nM | COc1nnc(COc2cccc(-c3cc(F)c(Cc4nc5c(F)cc(C(=O)O)cc5n4CC4(C(F)F)CC4)cc3F)n2)s1 [Example 275, 2-(2,5-difluoro-4-(6-((5-methoxy-1,3,4-thiadiazol-2-yl)methoxy)pyridin-2-yl)benzyl)-1-((1-(difluoromethyl)cyclopropyl)methyl)-4-fluoro-1H-benzo[d]imidazole-6-carboxylic acid]
12 | 0.83 nM | Cn1cc(C#Cc2cnc(COc3cccc(-c4cc(F)c(Cc5nc6ccc(C(=O)O)cc6n5C[C@@H]5CCO5)cc4F)n3)cn2)cn1 [Example 155, (S)-2-(2,5-difluoro-4-(6-((5-((1-methyl-1H-pyrazol-4-yl)ethynyl)pyrazin-2-yl)methoxy)pyridin-2-yl)benzyl)-1-(oxetan-2-ylmethyl)-1H-benzo[d]imidazole-6-carboxylic acid]
13 | 75.3 nM | CN(C)C(=O)c1ccc(COc2cccc(-c3cc(F)c(Cc4nc5ccc(C(=O)O)cc5n4C[C@@H]4CCO4)cc3F)n2)cn1 [Example 44, (S)-2-(4-(6-((6-(dimethylcarbamoyl)pyridin-3-yl)methoxy)pyridin-2-yl)-2,5-difluorobenzyl)-1-(oxetan-2-ylmethyl)-1H-benzo[d]imidazole-6-carboxylic acid]
14 | 23.2 nM | NC(=O)c1ccc(COc2cccc(-c3ccc(Cc4nc5ccc(C(=O)O)cc5n4C[C@@H]4CCO4)cc3F)n2)cn1 [Example 173, (S)-2-(4-(6-((6-carbamoylpyridin-3-yl)methoxy)pyridin-2-yl)-3-fluorobenzyl)-1-(oxetan-2-ylmethyl)-1H-benzo[d]imidazole-6-carboxylic acid]
15 | 0.14 nM | O=C(O)c1ccc2nc(Cc3cc(F)c(-c4cccc(OCc5ncc(C(F)F)s5)n4)cc3F)n(C[C@@H]3CCO3)c2c1 [Example 58, (S)-2-(4-(6-((5-(difluoromethyl)thiazol-2-yl)methoxy)pyridin-2-yl)-2,5-difluorobenzyl)-1-(oxetan-2-ylmethyl)-1H-benzo[d]imidazole-6-carboxylic acid]
16 | 0.02 nM | COc1cc(C(N)=O)ncc1COc1cccc(-c2cc(F)c(Cc3nc4ccc(C(=O)O)cc4n3C[C@@H]3CCO3)cc2F)n1 [Example 242, (S)-2-(4-(6-((6-carbamoyl-4-methoxypyridin-3-yl)methoxy)pyridin-2-yl)-2,5-difluorobenzyl)-1-(oxetan-2-ylmethyl)-1H-benzo[d]imidazole-6-carboxylic acid]
17 | 0.3 nM | CNC(=O)c1ccc(COc2cccc(-c3cc(F)c(Cc4nc5ccc(C(=O)O)cc5n4C[C@@H]4CCO4)cc3F)n2)cn1 [Example 43, (S)-2-(2,5-difluoro-4-(6-((6-(methylcarbamoyl)pyridin-3-yl)methoxy)pyridin-2-yl)benzyl)-1-(oxetan-2-ylmethyl)-1H-benzo[d]imidazole-6-carboxylic acid]
18 | 8.61 nM | N#CCn1ccc(COc2cccc(-c3cc(F)c(Cc4nc5ccc(C(=O)O)cc5n4C[C@@H]4CCO4)cc3F)n2)n1 [Example 238, 2-[[4-[6-[[1-(cyanomethyl)pyrazol-3-yl]methoxy]-2-pyridyl]-2,5-difluoro-phenyl]methyl]-3-[[(2S)-oxetan-2-yl]methyl]benzimidazole-5-carboxylic acid]
19 | 0.53 nM | CC(C)(C#N)NC(=O)c1cc(Cl)c(COc2cccc(-c3cc(F)c(Cc4nc5ccc(C(=O)O)cc5n4C[C@@H]4CCO4)cc3F)n2)cn1 [Example 199, (S)-2-(4-(6-((4-chloro-6-((2-cyanopropan-2-yl)carbamoyl)pyridin-3-yl)methoxy)pyridin-2-yl)-2,5-difluorobenzyl)-1-(oxetan-2-ylmethyl)-1H-benzo[d]imidazole-6-carboxylic acid]
20 | 0.164 nM | CNC(=O)c1cc(Cl)c(COc2cccc(-c3cc(F)c(Cc4nc5c(F)cc(C(=O)O)cc5n4[C@@H]4COCC4(C)C)cc3F)n2)cn1 [Example 365, (S)-2-(4-(6-((4-chloro-6-(methylcarbamoyl)pyridin-3-yl)methoxy)pyridin-2-yl)-2,5-difluorobenzyl)-1-(4,4-dimethyltetrahydrofuran-3-yl)-4-fluoro-1H-benzo[d]imidazole-6-carboxylic acid]
21 | 8.86 nM | COCc1noc(COc2cccc(-c3cc(F)c(Cc4nc5ccc(C(=O)O)cc5n4C[C@@H]4CCO4)cc3F)n2)n1 [Example 16, (S)-2-(2,5-difluoro-4-(6-((3-(methoxymethyl)-1,2,4-oxadiazol-5-yl)methoxy)pyridin-2-yl)benzyl)-1-(oxetan-2-ylmethyl)-1H-benzo[d]imidazole-6-carboxylic acid]
22 | 1.75 nM | O=C(O)c1ccc2nc(Cc3cc(F)c(-c4cccc(OCc5cn6ccncc6n5)n4)cc3F)n(C[C@@H]3CCO3)c2c1 [Example 33, (S)-2-(2,5-difluoro-4-(6-(imidazo[1,2-a]pyrazin-2-ylmethoxy)pyridin-2-yl)benzyl)-1-(oxetan-2-ylmethyl)-1H-benzo[d]imidazole-6-carboxylic acid]
23 | 0.3 nM | CC1(C#Cc2ccc(COc3cccc(-c4cc(F)c(Cc5nc6ccc(C(=O)O)cc6n5C[C@@H]5CCO5)cc4F)n3)c(F)c2)COC1 [Example 133, (S)-2-(2,5-difluoro-4-(6-((2-fluoro-4-((3-methyloxetan-3-yl)ethynyl)benzyl)oxy)pyridin-2-yl)benzyl)-1-(oxetan-2-ylmethyl)-1H-benzo[d]imidazole-6-carboxylic acid]
24 | 0.508 nM | Cn1ccc(C#Cc2ccc(COc3cccc(-c4cc(F)c(Cc5nc6ccc(C(=O)O)cc6n5C[C@@H]5CCO5)cc4F)n3)c(F)c2)cc1=O [Example 357, (S)-2-(2,5-difluoro-4-(6-((2-fluoro-4-((1-methyl-2-oxo-1,2-dihydropyridin-4-yl)ethynyl)benzyl)oxy)pyridin-2-yl)benzyl)-1-(oxetan-2-ylmethyl)-1H-benzo[d]imidazole-6-carboxylic acid]
